{"source": "patent US9528114B2", "about": "“Method for amplifying locus in bacterial cell” (DANISCO US INC., priority 2008, dated 2016)", "key": {"[1]": {"tested_on": "Bacillus subtilis BG3594", "test": "Sensitivity threshold to β-chloro-D-alanine, dilutions plated on LB agar plates", "assay_type": "cell-based", "set-up": "key to Resistance (growth) on LB agar plate: +: growth; −: no growth", "settings": "for Resistance (growth) on LB agar plate: strain BG3594; for Growth of BG3594 in presence of CDA: LB agar", "method": "(§1) In a first phase, the concentration of β-chloro-D-alanine (CDA) necessary to inhibit growth of B. subtilis was determined by plating dilutions of LB-grown strain BG3594 on LB agar plates containing different concentrations of CDA. […] Other alanine racemase inhibitors, such as cycloserine, could be used instead of CDA."}, "[2]": {"tested_on": "BG3594, pDALsub1", "test": "Sensitivity to β-chloro-D-alanine of strain carrying alr-expressing plasmid, LB agar plates", "assay_type": "cell-based, Bacillus subtilis", "set-up": "key to Resistance (growth) on LB agar plate: +: growth; −: no growth", "settings": "for Resistance (growth) on LB agar plate: strain BG3594, pDALsub1", "method": "as §1"}}}
{"smiles": "N[C@H](CCl)C(=O)O", "note": "[CDA, β-chloro-D-alanine]", "values": [{"measurement": "Resistance (growth) on LB agar plate", "setting": "[1]; CDA 20 mg/L", "value": "+"}, {"measurement": "Resistance (growth) on LB agar plate", "setting": "[1]; CDA 50 mg/L", "value": "−**"}, {"measurement": "Resistance (growth) on LB agar plate", "setting": "[1]; CDA 100 mg/L", "value": "−"}, {"measurement": "Growth of BG3594 in presence of CDA", "setting": "[1]; concentration of 20 mg/L", "value": "can still grow"}, {"measurement": "Growth of BG3594 in presence of CDA", "setting": "[1]; concentration of 50 mg/L", "value": "totally inhibited"}, {"measurement": "Resistance (growth) on LB agar plate", "setting": "[2]; CDA 20 mg/L", "value": "+"}, {"measurement": "Resistance (growth) on LB agar plate", "setting": "[2]; CDA 50 mg/L", "value": "+"}, {"measurement": "Resistance (growth) on LB agar plate", "setting": "[2]; CDA 100 mg/L", "value": "+"}, {"measurement": "Growth of BG3594 with alr-expressing plasmid in presence of CDA", "setting": "[2]; all CDA concentrations tested (up to 100 mg/L), LB agar", "value": "allows growth"}]}
